The values that follow are results of earlier work, collected in patent publication US12083092B2, “Antiviral 1,3-di-oxo-indene compounds” (Novartis AG, priority 2020, dated 2024).

The subject of data set [1] is 48 rhinovirus types and coxsackievirus A21. B3, enterovirus 70 and echovirus 11. Conditions: coxsackievirus A21, B3, enterovirus 70, echovirus 11; cited from earlier work.
For data set [2] the following is noted: in vivo, cited from earlier work.
The conditions of data set [3]: in vivo; cited from earlier work.
For data set [4] the following is noted: in vivo; cited from earlier work. This is another data set of the same source.

Consider `CCOC(=O)/C=C/[C@H](C[C@@H]1CCNC1=O)NC(=O)[C@@H](CC(=O)[C@@H](NC(=O)c1cc(C)on1)C(C)C)Cc1ccc(F)cc1` [AG 7088], for which the “effect in the cell culture” value in data set [1] is “nanomolar concentration range”.
In the case of `Cc1cc(CCCOc2c(C)cc(-c3noc(C(F)(F)F)n3)cc2C)on1` [Pleconaril], in data set [2] (po), the oral bioavailability result is listed as “very good oral bioavailability”.
`Cc1cc(CCCCCOc2c(Cl)cc(C3=NCCO3)cc2Cl)on1` [WIN 54954]: the metabolization and excretion result in data set [3] was “rapid metabolization and excretion”. In data set [4], the side effects result was “skin rash”.
For `CCC(=O)C(CCCCCCOc1ccc(OC)cc1Cl)C(=O)CC` [arildone], in data set [2], the bioavailability result is recorded as “low bioavailability”.
Consider `Cc1cc(CCCCCCCOc2ccc(C3=NCCO3)cc2)on1` [disoxaril], for which the metabolization and excretion result in data set [3] was “rapid metabolization and excretion”. Moreover, the bioavailability result in data set [2] is “low bioavailability”.
